The record followed here is patent US7671050B2, “Triazolophthalazines” (NYCOMED GmbH, priority 2005, dated 2010).

No end group written: not given here.

One data set deals with HUVEC monolayers. Kind of data set: Inhibition of thrombin-stimulated macromolecule (HRP) permeability of HUVEC monolayers. The format is cell-based, human. The conditions noted are these: 1 μM RP73401 together with 10 μM Motapizone, 1 U/ml thrombin, 60 min. Here is the method: The procedure to measure macromolecule permeability of endothelial cell monolayers followed the method described by Langeler & van Hinsbergh (1988) with modifications. Human umbilical vein endothelial cells were isolated from umbilical cords according to standard procedures (Jaffe et al. 1973) and cultured in endothelial cell basal medium (EBM) supplemented with 2% FCS, 0.5 ng/ml VEGF, 10 ng/ml bFGF, 5 ng/ml EGF, 20 ng/ml Long R3 IGF-1, 0.2 μg/ml hydrocortisone, 1 μg/ml ascorbic acid, 22.5 μg/ml heparin, 50 μg/ml gentamicin, 50 ng/ml amphotericin B (EGM2 purchased from Promocell GmbH, Heidelberg, Germany). At confluency, cells were trypsinized and replated at 73000 cells per well on 3 μm polycarbonate filter Transwell inserts (Costar GmbH, Bodenheim, Germany) precoated with 10 μg cm^2−1 Fibronectin (Sigma, Taufkirchen, Germany). HUVECs were cultured in EGM2 (100 μl in the upper wells and 600 μl in the lower wells) over four days prior the experiments and medium was changed every other day. At the day of the experiment culture medium was replaced by M199 with 1% human serum albumin. Endothelial cells were preincubated with cyclic nucleotide modifiers (the selective PDE3 inhibitor motapizone, the selective PDE4 inhibitor RP73401, the cGMP generators ANP or SNP and PDE2 inhibitors) for 15 min. HUVECs were then stimulated with Thrombin (1 U ml^−1) (Sigma, Taufkichen, Germany) and horsh radish peroxidase (5 μg/ml) (Sigma, Taufkirchen, Germany) as the macromolecule marker protein was added to the upper wells. Following 1 h incubation time Transwells were removed and the activity of horsh radish peroxidase that penetrated the endothelial cell monolayer was measured in the lower wells with the 3,3′,5,5′-tetramethylbenzidine liquid substrate system from Sigma (Taufkirchen, Germany).
In parallel, compounds according to the invention can inhibit Thrombin-induced permeability of HUVEC monolayers for horsh radish peroxidase (HRP) as a macromolecule marker. […] The concentration-dependent inhibition of HRP permeability at different concentrations was assessed from the percent inhibition in the presence and absence of the PDE2 inhibitors and in the presence of 1 μM RP73401, 10 μM Motapizone and 100 nM ANP.
HUVEC cells on 3 μm polycarbonate filters (Transwells) were preincubated with 1 μM RP73401 (to block PDE4) and 10 μM Motapizone (to block PDE3), 1 mM SNP or 100 nM ANP and test sample over 15 min and then stimulated with 1 U/ml thrombin. HRP passage into the lower wells was assessed after 60 min.
Regarding `CC1CC(=O)NN=C1c1cc(-n2ccnc2)cs1` (stereo not drawn) [Motapizone, reference compound], the “Effect on thrombin-induced hyperpermeability (HRP passage)” value was “completely blocked”.
Same read-out and setting: the entry for `COc1ccc(C(=O)Nc2c(Cl)cncc2Cl)cc1OC1CCCC1` [RP73401, reference compound] is “completely blocked”.

The data set is the same for the next values; noted with them: 1 mM SNP or 100 nM ANP added to 1 μM RP73401 and 10 μM Motapizone, 1 U/ml thrombin.
Regarding “ANP: cGMP generator (SLRRSSCFGGRMDRIGAQSGLGCNSFRY; ends and bridges not checked; cysteine pairing not given here; UniProt P01160 124-151, looked up) [reference compound]”, the “Effect on the block of thrombin-induced hyperpermeability by RP73401 and Motapizone” value is listed as “partially reversed”.

The data set is the same for the next values; noted with them: Homo sapiens, 1 h; HUVEC on Transwells, 1 μM RP73401, 10 μM Motapizone, 1 mM SNP or 100 nM ANP, 1 U/ml thrombin, HRP passage after 60 min; read-out: Inhibition of SNP- or ANP-induced permeability, -log IC50 (converted).
Consider `COc1ccc(-c2nnc3c4ccccc4c(Nc4ccc(OC)c(OC)c4)nn23)cc1` [Example 2, (3,4-Dimethoxy-phenyl)-[3-(4-methoxy-phenyl)-[1,2,4]triazolo[3,4-a]phthalazin-6-yl]-amine], for which the IC50 was 7.94 to 316 nM.
As for `COC(=O)c1cccc(-c2nnc3c4ccccc4c(Nc4ccc(N5CCOCC5)cc4)nn23)c1` [Example 19, 3-[6-(4-Morpholin-4-yl-phenylamino)-[1,2,4]triazolo[3,4-a]phthalazin-3-yl]-benzoic acid methyl ester], the 50% inhibitory concentration (IC50) is 7.94 to 316 nM.
Consider `COc1ccc(-c2nnc3c4ccccc4c(Nc4cccc(OC)c4)nn23)cc1` [Example 7, (3-Methoxyphenyl)-[3-(4-methoxyphenyl)-[1,2,4]triazolo[3,4-a]phthalazin-6-yl]-amine], for which the concentration for half-maximal inhibition (IC50) is 7.94 to 316 nM.
Still for that read-out and setting: the figure for `CCOc1cccc(Nc2nn3c(-c4ccc(OC)cc4)nnc3c3ccccc23)c1` [Example 23, (3-Ethoxyphenyl)-[3-(4-methoxyphenyl)-[1,2,4]triazolo[3,4-a]phthalazin-6-yl]-amine] is 7.94 to 316 nM; for `COc1ccc(-c2nnc3c4ccccc4c(Nc4cccc(OC(F)(F)F)c4)nn23)cc1` [Example 24, [3-(4-Methoxyphenyl)-[1,2,4]triazolo[3,4-a]phthalazin-6-yl]-(3-trifluoromethoxyphenyl)-amine] it is 7.94 to 316 nM; for `COc1ccc(-c2nnc3c4ccccc4c(Nc4cccc(Oc5ccccc5)c4)nn23)cc1` [Example 9, [3-(4-Methoxyphenyl)-[1,2,4]triazolo[3,4-a]phthalazin-6-yl]-(3-phenoxyphenyl)-amine] it is 7.94 to 316 nM.
With `COc1ccc(-c2ccc(Nc3nn4c(-c5ccc(OC)cc5)nnc4c4ccccc34)cc2)cc1` [Example 6, (4′-Methoxybiphenyl-4-yl)-[3-(4-methoxyphenyl)-[1,2,4]triazolo[3,4-a]phthalazin-6-yl]-amine], the IC50 was 7.94 to 316 nM.

Tested on in another data set: not given
Experiment: not given
Conditions: not given
Take `COc1ccc(-c2nnc3c4ccccc4c(Nc4ccc(Cl)cc4)nn23)cc1` [Example 5, (4-Chlorophenyl)-[3-(4-methoxyphenyl)-[1,2,4]triazolo[3,4-a]phthalazin-6-yl]-amine]: the melting point is 295 °C.
`COc1ccc(-c2nnc3c4ccccc4c(Nc4ccc(Br)cc4)nn23)cc1` [Example 31, (4-Bromo-phenyl)-[3-(4-methoxy-phenyl)-[1,2,4]triazolo[3,4-a]phthalazin-6-yl]-amine] showed a melting point of 314 to 316 °C.
On the same count and under the same terms, the figure for `c1ccc2c(c1)c(Nc1ccc(N3CCOCC3)cc1)nn1c(-c3ccc(N4CCOCC4)cc3)nnc21` [Example 20, (4-Morpholin-4-yl-phenyl)-[3-(4-morpholin-4-yl-phenyl)-[1,2,4]triazolo[3,4-a]phthalazin-6-yl]-amine] is 322 °C.
Molecule `COc1ccc(-c2nnc3c4ccccc4c(Nc4cccc(OCc5ccccc5)c4)nn23)cc1` [Example 4, (3-Benzyloxyphenyl)-[3-(4-methoxyphenyl)-[1,2,4]triazolo[3,4-a]phthalazin-6-yl]-amine] had a melting point of 260 °C.
On the same count and under the same terms, the value for `COC(=O)c1ccc(-c2nnc3c4ccccc4c(Nc4ccc(N5CCOCC5)cc4)nn23)cc1` [Example 22, 4-[6-(4-Morpholin-4-yl-phenylamino)-[1,2,4]triazolo[3,4-a]phthalazin-3-yl]-benzoic acid methyl ester] was 303 °C.

The term IC50 denotes the concentration that gives 50% inhibition. As usually defined, the melting point is the temperature of the solid-liquid transition.
